Entries after “also recorded” stand apart in the source; their conditions may differ.
Experiments:
YAC128 mice = assay: Accelerating rotarod in YAC128 Huntington's Disease mice; type: in vivo; conditions: YF2 5 mg/kg from age 2 months
Procedure: Animals: Mouse models of Huntington's Disease (YAC128) versus wildtype (WT) littermates.
Accelerating Rotarod: This assay is a common assay used to monitor motor coordination in mouse models of Huntington's disease (HD). After a training period to acclimatize the mice to the apparatus, mice are placed on a rod rotating at 5 rpm. Over the test period of 300 sec, the rod increases its rotational speed from 5 rpm to 40 rpm. The time at which the mouse falls off of the rod is recorded. Each mouse is subject to 3 runs per day (shown as a per day average) across 3 days (d1, d2, d3). Typically 8 to 12 mice per group are used in this assay. Both male and female data are shown for age 4 months (FIG. 83A) and 6 months (FIG. 83B).

APP/PS1 mice = assay: RAWM and fear conditioning in APP/PS1 mice (YF2); type: in vivo
Text: Without being bound by theory, given that these experiments were obtained with a synthetic preparation of Aβ42, it is difficult to know if this is the same as Aβ that causes synaptic dysfunction in AD brains. Thus, we validated these experiments in an Aβ-depositing mouse model, the APP/PS1 mouse^[P35] (herein incorporated by reference in its entirety). These mice have been well characterized with respect to AD pathology^[P34-38] (each herein incorporated by reference in its entirety). They start to show synaptic and memory impairment as early as 3 months of age^[P34] (herein incorporated by reference in its entirety). Transgenic mice with a double mutation APP […]/PS1(M146L) (line 6.2) start to develop large plaques in cortex and hippocampus at the age of 8-10 weeks. They have a reduction in LTP by 3 months of age together with impairment of contextual fear memory and spatial working memory.

HDAC3/NCOR2 = HDAC3/NCOR2 (Homo sapiens, UniProt O15379); assay: HDAC3/NCOR2 fluorogenic activity assay
Aβ42-infused mice = assay: Two day radial arm water maze in Aβ-infused mice (YF2); type: in vivo
Text: The task is a hybrid of the Morris Water Maze (MWM) and the radial arm land maze. This task is altered in Aβ-infused mice. The motivation for the animals is the immersion in water. The mouse needed to swim in 6 alleys (arms) radiating from a central area until it found a hidden (submerged) platform at the end of one of the arms, based on visual cues placed in the room. […] The first day of the protocol was a training day. Mice were trained to identify the platform location by alternating between a visible and a hidden platform in a goal arm. The final 3 trials on day 1 and all 15 trials on day 2 used a hidden escape platform to force mice to use spatial cues to identify the location of the goal arm.
To avoid learning limitations imposed by exhausting practice and to avoid fatigue that may result from consecutive trials, spaced practice training were established by running the mice in cohorts of 4 and alternating different cohorts through the 15 training trials over 3 hours testing periods each day. […] The number of incorrect arm entries (entries in arms with no platform) was counted. […] Failure to select an arm after 15 sec were counted as an error and the mouse was returned to the start arm. […]
Next, mice from the first cohort completed trials 7-12 again using the alternating visible-hidden platform location. […] For data analysis, averages for each mouse were calculated using blocks of 3 trials. […]

Chain of HDAC3/NCOR2 (O15379 whole entry, the tested form may be a part): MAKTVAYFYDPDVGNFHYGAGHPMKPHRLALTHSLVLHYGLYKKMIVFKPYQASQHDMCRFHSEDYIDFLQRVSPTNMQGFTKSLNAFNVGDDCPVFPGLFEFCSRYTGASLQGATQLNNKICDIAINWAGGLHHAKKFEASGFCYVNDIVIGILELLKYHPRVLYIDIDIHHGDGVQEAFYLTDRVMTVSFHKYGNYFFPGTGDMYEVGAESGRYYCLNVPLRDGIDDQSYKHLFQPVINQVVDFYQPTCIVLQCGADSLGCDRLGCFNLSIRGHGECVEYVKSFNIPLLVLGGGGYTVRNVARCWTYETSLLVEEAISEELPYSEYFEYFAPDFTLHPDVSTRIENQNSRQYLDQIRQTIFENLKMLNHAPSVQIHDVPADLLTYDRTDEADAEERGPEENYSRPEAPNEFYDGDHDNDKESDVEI
Chain of HDAC3/NCOR2 (Q9Y618 395-489 partner limits assumed): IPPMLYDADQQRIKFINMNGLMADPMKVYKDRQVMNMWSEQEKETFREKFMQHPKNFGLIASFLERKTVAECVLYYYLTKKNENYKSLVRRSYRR

**Q.** What does the source list for `CCOc1cccc(OCCN(C)C)c1C(=O)Nc1ccc(Cl)c(C(F)(F)F)c1` [YF2]?
**A.** rotarod performance deficit of YAC128 vs WT mice (YAC128 mice; female mice, 6 months of age): significance is lost; rotarod performance deficit of YAC128 vs WT mice (YAC128 mice; male mice, 4 months of age): significance is lost; reference memory defect (RAWM) (APP/PS1 mice; APP/PS1 mice, 20 mg/Kg i.p. 30 min before 1st and 2nd group of tests, 20 mg/kg): ameliorates; also recorded: rescued; contextual fear memory deficit (APP/PS1 mice; APP/PS1 mice, 20 mg/Kg i.p. 30 min before training for FC, 20 mg/kg): ameliorates; memory in WT mice (APP/PS1 mice; WT littermates, 20 mg/Kg i.p.): without affecting; IC50 (HDAC3/NCOR2): > 200 µM; RAWM performance, compound by itself (Aβ42-infused mice; 5 mg/kg i.p., no Aβ): did not affect; Aβ-induced reference memory impairment (RAWM errors) (Aβ42-infused mice; Aβ42-infused mice, i.p. 5 mg/kg 30 min prior to 1st and 7th trial, 5 mg/kg): ameliorated; also recorded: rescued

Reference: patent US10640457B2, “Histone acetyltransferase activators and uses thereof” (The Trustees of Columbia University in the City of New York, priority 2009, dated 2020)
